Data on 18 compounds can be found in US11976083B2, “Inhibitors of peptidylarginine deiminases” (Gilead Sciences, Inc., priority 2020, dated 2024).

The target of this assay is T1, human PAD4 (Homo sapiens, UniProt Q9UM07).
T1 construct: human PAD4 (NM_012387), A2-P663, was PCR amplified; His-SUMO (N, cleaved yes); made in house; host or cells: E. coli BL21(DE3)
T1 sequence (Q9UM07 2-663): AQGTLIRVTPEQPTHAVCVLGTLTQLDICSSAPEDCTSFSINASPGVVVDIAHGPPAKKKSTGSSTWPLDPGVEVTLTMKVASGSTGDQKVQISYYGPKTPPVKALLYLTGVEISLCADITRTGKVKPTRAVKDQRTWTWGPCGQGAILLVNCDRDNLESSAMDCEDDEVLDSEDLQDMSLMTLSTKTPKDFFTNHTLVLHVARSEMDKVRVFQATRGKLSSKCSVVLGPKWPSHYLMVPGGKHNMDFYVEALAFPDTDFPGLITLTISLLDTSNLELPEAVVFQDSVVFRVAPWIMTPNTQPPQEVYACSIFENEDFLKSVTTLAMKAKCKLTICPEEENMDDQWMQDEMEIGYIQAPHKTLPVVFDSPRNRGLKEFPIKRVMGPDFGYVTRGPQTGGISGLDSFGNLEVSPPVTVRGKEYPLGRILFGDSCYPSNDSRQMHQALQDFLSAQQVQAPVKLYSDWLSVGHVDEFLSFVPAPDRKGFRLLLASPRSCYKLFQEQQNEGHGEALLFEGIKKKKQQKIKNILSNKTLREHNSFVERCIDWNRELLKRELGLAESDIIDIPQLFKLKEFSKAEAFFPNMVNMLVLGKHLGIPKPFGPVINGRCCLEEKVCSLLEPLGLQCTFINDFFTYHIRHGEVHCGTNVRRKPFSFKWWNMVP
The experiment in a line: In vitro PAD4 BAEE biochemical assay. The settings on record: BAEE substrate 3 mM, 5 nM PAD4, 2 mM calcium chloride; geometric mean of multiple experiments. The procedure, abridged:
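Recombinant PAD4 (5 nM final) with 2 mM CaCl2 was preincubated with compound for 30 min at 25 °C in MOPS pH 7.6 buffer with DTT, then reacted with 3 mM BAEE for 2 h at 25 °C. Released ammonia was detected fluorimetrically with o-phthalaldehyde/DTT; IC50 from four-parameter fit, geometric mean of experiments.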
Broadly, the IC50 is the point on the concentration scale where inhibition reaches its midpoint. In the case of `COc1cc(C(=O)N2[C@H]3CC[C@@H]2[C@H](N)C3)cc2nc(-c3cc4ccc5nc4n3CCCCCC[C@H](C)C(=O)N[C@@H]5C)n(C)c12` [Example 137, (8~{S},11~{R})-17-[5-[(1~{R},2~{R},4~{S})-2-amino-7-azabicyclo[2.2.1]heptane-7-carbonyl]-7-methoxy-1-methyl-benzimidazol-2-yl]-8,11-dimethyl-1,10,19-triazatricyclo[10.5.2.0^{15,18}]nonadeca-12(19),13,15(18),16-tetraen-9-one], the IC50 came to 0.035 µM.

In the case of `COc1cc(C(=O)N2[C@H]3CC[C@@H]2[C@H](N)C3)cc2nc(-c3cc4ccc5nc4n3CCCCCC[C@@H]3CCN(C3=O)[C@@H]5C)n(C)c12` [Example 138, (2˜{R},6˜{R})-14-[5-[(1˜{R},2˜{R},4˜{S})-2-amino-7-azabicyclo[2.2.1]heptane-7-carbonyl]-7-methoxy-1-methyl-benzimidazol-2-yl]-2-methyl-3,13,19-triazatetracyclo[11.5.2.1^{3,6}.0^{16,20}]henicosa-1(19),14,16(20),17-tetraen-21-one], the IC50 came to 0.018 µM.

For the compound `COc1cc(C(=O)N2[C@H]3CC[C@@H]2[C@H](N)C3)cc2nc(-c3cc4ccc5nc4n3CC3(CCCCCC(=O)N[C@@H]5C)CC3)n(C)c12` [Example 139, (11~{R})-17-[5-[(1~{R},2~{R},4~{S})-2-amino-7-azabicyclo[2.2.1]heptane-7-carbonyl]-7-methoxy-1-methyl-benzimidazol-2-yl]-11-methyl-spiro[1,10,19-triazatricyclo[10.5.2.0^{15,18}]nonadeca-12(19),13,15(18),16-tetraene-3,1′-cyclopropane]-9-one], the IC50 was found to be 0.04 µM.

For `COc1cc(C(=O)N2CCC[C@@H](N)C2)cc2nc(-c3cc4ccc5nc4n3CC(C)(C)CCCCCC(=O)N[C@@H]5C)n(C)c12` [Example 140, (11~{R})-17-[5-[(3~{R})-3-aminopiperidine-1-carbonyl]-7-methoxy-1-methyl-benzimidazol-2-yl]-3,3,11-trimethyl-1,10,19-triazatricyclo[10.5.2.0^{15,18}]nonadeca-12(19),13,15(18),16-tetraen-9-one], the IC50 came to 0.097 µM.

On to `COc1cc(C(=O)N2[C@H]3CC[C@@H]2[C@H](N)C3)cc2nc(-c3cc4ccc5nc4n3CC(C)(C)CCCCCC(=O)N[C@@H]5C)n(C)c12` [Example 141, (11~{R})-17-[5-[(1~{R},2~{R},4~{S})-2-amino-7-azabicyclo[2.2.1]heptane-7-carbonyl]-7-methoxy-1-methyl-benzimidazol-2-yl]-3,3,11-trimethyl-1,10,19-triazatricyclo[10.5.2.0^{15,18}]nonadeca-12(19),13,15(18),16-tetraen-9-one], for which the IC50 stood at 0.068 µM.

With `COc1cc(C(=O)N2[C@H]3CC[C@@H]2[C@H](N)C3)cc2nc(-c3cc4ccc5nc4n3C[C@H]3C[C@H]3CC[C@@H]3C[C@H]3C(=O)N[C@@H]5C)n(C)c12` [Example 142, (3~{S),5~{R},8~{R},10~{R},13~{R})-19-[5-[(1~{R},2~{R},4~{S})-2-amino-7-azabicyclo[2.2.1]heptane-7-carbonyl]-7-methoxy-1-methyl-benzimidazol-2-yl]-13-methyl-1,12,21-triazapentacyclo[12.5.2.0^{3,5}.0^{8,10}.0^ {17,20}]henicosa-14(21),15,17(20),18-tetraen-11-one], the IC50 came to 0.028 µM.

As to `COc1cc(C(=O)N2[C@H]3CC[C@@H]2[C@H](N)C3)cc2nc(-c3cc4ccc5nc4n3C[C@H]3C[C@H]3CC[C@H]3C[C@@H]3C(=O)N[C@@H]5C)n(C)c12` [Example 143, (3~{S),5~{R},8~{S},10~{S},13~{R})-19-[5-[(1~{R},2~{R},4~{S})-2-amino-7-azabicyclo[2.2.1]heptane-7-carbonyl]-7-methoxy-1-methyl-benzimidazol-2-yl]-13-methyl-1,12,21-triazapentacyclo[12.5.2.0^{3,5}.0^{8,10}.0^ {17,20}]henicosa-14(21),15,17(20),18-tetraen-11-one], the IC50 was 0.158 µM.

On to `COc1cc(C(=O)N2[C@H]3CC[C@@H]2[C@H](N)C3)cc2nc(-c3cc4ccc5nc4n3C[C@H]3C[C@H]3CCCCC(=O)N[C@@H]5C)n(C)c12` [Example 144, (3~{S),5~{R},12~{R})-18-[5-[(1~{R},2~{R},4~{S})-2-amino-7-azabicyclo[2.2.1]heptane-7-carbonyl]-7-methoxy-1-methyl-benzimidazol-2-yl]-12-methyl-1,11,20-triazatetracyclo[11.5.2.0^{3,5}.0^{16,19}] icosa-13(20),14,16(19),17-tetraen-10-one], for which the IC50 worked out at 0.031 µM.

For the compound `COc1cc(C(=O)N2[C@H]3CC[C@@H]2[C@H](N)C3)cc2nc(-c3cc4ccc5nc4n3C[C@H]3C[C@H]3CCCC(C)(C)C(=O)N[C@@H]5C)n(C)c12` [Example 145, (3~{S},5~{R},12~{R})-18-[5-[(1~{R},2~{R},4~{S})-2-amino-7-azabicyclo[2.2.1]heptane-7-carbonyl]-7-methoxy-1-methyl-benzimidazol-2-yl]-9,9,12-trimethyl-1,11,20-triazatetracyclo[11.5.2.0^{3,5}.0^{16,19}] icosa-13(20),14,16(19),17-tetraen-10-one], the IC50 was 0.058 µM.

`COc1cc(C(=O)N2CCC[C@@H](N)C2)cc2nc(-c3cc4ccc5nc4n3CCCCCCCN(C)C(=O)N[C@@H]5C)c(C)n12` [Example 146, (12~{R})-18-[7-[(3~{R})-3-aminopiperidine-1-carbonyl]-5-methoxy-3-methyl-imidazo[1,2-a]pyridin-2-yl]-9,12-dimethyl-1,9,11,20-tetrazatricyclo[11.5.2.0^{16,19}]icosa-13(20),14,16(19),17-tetraen-10-one]: the half-maximal inhibitory concentration (IC50) was determined as 0.047 µM.

For `COc1cc(C(=O)N2CCC[C@@H](N)C2)cc2nc(-c3cc4ccc5nc4n3CCCCCCOc3ccccc3C(=O)N[C@@H]5C)c(C)n12` [Example 147, (2~{R})-19-[7-[(3~{R})-3-aminopiperidine-1-carbonyl]-5-methoxy-3-methyl-imidazo[1,2-a]pyridin-2-yl]-2-methyl-11-oxa-3,18,24-triazatetracyclo [16.5.2.0^{5,10}.0^{21,25}] pentacosa-1(24),5(10),6,8,19,21(25),22-heptaen-4-one], the IC50 was found to be 0.365 µM.

Consider `COc1cc(C(=O)N2CCC[C@@H](N)C2)cc2nc(-c3cc4ccc5cc4n3CCCCCCC(C)(C)C(=O)N[C@@H]5C)n(C)c12` [Example 148, (11~{R})-17-[5-[(3~{R})-3-aminopiperidine-1-carbonyl]-7-methoxy-1-methyl-benzimidazol-2-yl]-8,8,11-trimethyl-1,10-diazatricyclo [10.5.2.0^{15,18}]nonadeca-12(19),13,15(18),16-tetraen-9-one], for which the IC50 came out at 0.045 µM.

Take `COc1cc(C(=O)N2CCC[C@@H](N)C2)cc2nc(-c3cc4ccc5nc4n3C[C@H]3C[C@@H]3COCCC(=O)N[C@@H]5C)n(C)c12` [Example 149, (3~{S},5~{S},12~{R})-18-[5-[(3~{R})-3-aminopiperidine-1-carbonyl]-7-methoxy-1-methyl-benzimidazol-2-yl]-12-methyl-7-oxa-1,11,20-triazatetracyclo[11.5.2.0^{3,5}.0^{16,19}] icosa-13(20),14,16(19),17-tetraen-10-one]: the IC50 came to 0.046 µM.

As to `COc1cc(C(=O)N2CCC[C@@H](N)C2)cc2nc(-c3cc4ccc5nc4n3C[C@@H]3C[C@H]3COCCC(=O)N[C@@H]5C)n(C)c12` [Example 150, (3~{R},5~{R},12~{R})-18-[5-[(3~{R})-3-aminopiperidine-1-carbonyl]-7-methoxy-1-methyl-benzimidazol-2-yl]-12-methyl-7-oxa-1,11,20-triazatetracyclo[11.5.2.0^{3,5}.0^{16,19}] icosa-13(20),14,16(19),17-tetraen-10-one], the IC50 was found to be 0.107 µM.

Take `COc1cc(C(=O)N2CCC[C@@H](N)C2)cc2nc(-c3cc4ccc5nc4n3CCCC[C@H]3C[C@@H]3C(=O)N[C@@H]5C)n(C)c12` [Example 151, (2~{R},5~{S},7~{S})-13-[5-[(3~{R})-3-aminopiperidine-1-carbonyl]-7-methoxy-1-methyl-benzimidazol-2-yl]-2-methyl-3,12,18-triazatetracyclo[10.5.2.0^{5,7}.0^{15,19}] nonadeca-1(18),13,15(19),16-tetraen-4-one]: the IC50 stood at 0.123 µM.

As to `COc1cc(C(=O)N2[C@H]3CC[C@@H]2[C@H](N)C3)cc2nc(-c3cc4ccc5nc4n3CCCC[C@H]3C[C@@H]3C(=O)N[C@@H]5C)n(C)c12` [Example 152, (2~{R},5~{S},7~{S})-13-[5-[(1~{R},2~{R},4~{S})-2-amino-7-azabicyclo[2.2.1]heptane-7-carbonyl]-7-methoxy-1-methyl-benzimidazol-2-yl]-2-methyl-3,12,18-triazatetracyclo[10.5.2.0^{5,7}.0^{15,19}] nonadeca-1(18),13,15(19),16-tetraen-4-one], the IC50 is 0.043 µM.

Consider `COc1cc(C(=O)N2CCC[C@@H](N)C2)cc2nc(-c3cc4ccc5nc4n3CCCCC[C@@H](OC)C(C)(C)C(=O)N[C@@H]5C)n(C)c12` [Example 153, (7~{R},11~{R})-17-[5-[(3~{R})-3-aminopiperidine-1-carbonyl]-7-methoxy-1-methyl-benzimidazol-2-yl]-7-methoxy-8,8,11-trimethyl-1,10,19-triazatricyclo[10.5.2.0^{15,18}]nonadeca-12(19),13,15(18),16-tetraen-9-one], for which the 50% inhibitory concentration (IC50) turned out to be 0.116 µM.

In the case of `COc1cc(C(=O)N2CCC[C@@H](N)C2)cc2nc(-c3cc4ccc5nc4n3CCCCC[C@H](OC)C(C)(C)C(=O)N[C@@H]5C)n(C)c12` [Example 154, (7~{S},11~{R})-17-[5-[(3~{R})-3-aminopiperidine-1-carbonyl]-7-methoxy-1-methyl-benzimidazol-2-yl]-7-methoxy-8,8,11-trimethyl-1,10,19-triazatricyclo[10.5.2.0^{15,18}]nonadeca-12(19),13,15(18),16-tetraen-9-one], the IC50 worked out at 0.057 µM.
